Measurements as given in patent US20060014231A1, “Methods and compositions to promote bone homeostasis” (priority 2004, published 2006).
Values belong to the molecule of their own block, whether it stands above or below them.

How the values were obtained:
[1] = biological target: T1, GPR65 (Homo sapiens, UniProt Q8IYL9); assay: Alkaline phosphatase (AP) assay in MPCs infected with Ad-GPR65 and treated with ligand; type: cell-based; details: MPCs infected with Ad-GPR65, increasing ligand concentrations
T1 construct: amplification of the complete open reading frame from ATG start codon to the stop codon of drugable genes; expressed in transfected cells; host or cells: primary human bone-marrow MPCs, adenoviral transduction (Ad-GPR65 with Ad-hCAR)
T1 sequence (Q8IYL9 whole entry): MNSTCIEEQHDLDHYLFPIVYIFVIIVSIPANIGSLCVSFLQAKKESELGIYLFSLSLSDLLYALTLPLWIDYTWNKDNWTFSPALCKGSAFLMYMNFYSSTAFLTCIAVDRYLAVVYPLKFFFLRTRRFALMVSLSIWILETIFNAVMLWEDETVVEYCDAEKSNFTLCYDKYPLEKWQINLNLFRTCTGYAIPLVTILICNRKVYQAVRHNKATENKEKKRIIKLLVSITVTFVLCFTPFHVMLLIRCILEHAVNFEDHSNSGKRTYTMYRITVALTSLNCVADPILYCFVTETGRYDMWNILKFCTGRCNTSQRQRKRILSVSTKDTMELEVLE
Description: These dose-response curves are depicted in FIG. 5. A dose-response curve for AP activity is generated for MPCs infected with Ad-NR1H3 and treated with T0901317 (FIG. 5A). MPCs are seeded on day 0 at 1000 cells per well of a 384 well plate and co-infected the next day using AdC51-hCAR (MOI 250) and different MOIs of Ad5-NR1H3 (MOI 12000, 4000, 1333, 444). On day 1, 5 concentrations (1E-10M, 1E-9M, 1E-8M, 1E-7M, 1E-6M) of the compound T0901317 (Cayman Chemical, Michigan USA, Cat. No. 71810) with fixed vehicle concentration (the vehicle is DMSO at the concentration is 0.01 %) are added to the wells. After incubation for 6 days at 37° C., 10% CO2 in a humidified incubator, up-regulation of alkaline phosphatase is read: 15 μl MUP is added to each well, the plates are incubated for 15 min at 37° C. and monitored for AP activity using a fluorescence plate reader (Fluostar, BMG).
Dose-response curves for AP activity are generated in a similar way for MPCs infected with Ad-GPR65 and treated with 1-b-D-Galactosylsphingosine (FIG. 5B); for MPCs infected with Ad-AVPR2 and treated with [deamino-Cys1, D-Arg8]-Vasopressin (DDAVP) (FIG. 5C).

[2] = biological target: T2, NR1H2 (Homo sapiens, UniProt P55055); assay: Alkaline phosphatase (AP) assay in MPCs infected with Ad-NR1H2 and treated with ligand; type: cell-based; details: MPCs infected with Ad-NR1H2, increasing ligand concentrations, MUP readout after 7, 10 and 13 days
T2 construct: amplification of the complete open reading frame from ATG start codon to the stop codon of drugable genes; expressed in transfected cells; host or cells: primary human bone-marrow MPCs, adenoviral transduction (Ad5-NR1H2 with Ad-hCAR)
T2 sequence (P55055 1-460): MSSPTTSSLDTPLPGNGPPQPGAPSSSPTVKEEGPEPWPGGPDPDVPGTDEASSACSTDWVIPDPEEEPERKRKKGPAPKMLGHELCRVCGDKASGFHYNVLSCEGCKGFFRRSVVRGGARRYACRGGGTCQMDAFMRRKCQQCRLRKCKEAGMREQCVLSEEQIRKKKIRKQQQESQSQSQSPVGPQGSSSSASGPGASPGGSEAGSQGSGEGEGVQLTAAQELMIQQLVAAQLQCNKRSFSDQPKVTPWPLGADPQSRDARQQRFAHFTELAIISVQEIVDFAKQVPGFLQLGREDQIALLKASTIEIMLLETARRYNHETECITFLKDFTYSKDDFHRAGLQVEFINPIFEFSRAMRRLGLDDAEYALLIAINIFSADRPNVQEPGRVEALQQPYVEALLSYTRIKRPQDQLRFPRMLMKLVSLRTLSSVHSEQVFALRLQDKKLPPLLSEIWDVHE
Description: (§1) After 6 days, medium is removed and replaced with fresh medium containing the same concentrations of the compound T0901317. Readouts of AP activity are performed at several time points after the start of the experiment, typically after 7, 10 and 13 days. Up-regulation of alkaline phosphatase activity is read as follows: medium is removed from the monolayers, 15 μl MUP is added to each well, the plates are incubated for 15 min at 37° C. and then read for AP activity using a fluorescence plate reader (Fluostar, BMG).
as §1, with “MPCs are seeded on day 0 at 1000 cells per well of a 384 well plate and co-infected the next day using AdC51-hCAR (MOI 250) and different MOIs of Ad5-NR1H2 (MOI 2000, 666). On day 1, 9 concentrations (1.52E-9M, 4.57E-9M, 1.37E-8M, 4.12E-8M, 1.23E-7M, 3.7E-7M, 1.11E-6M, 3.33E-6M, 1E-5M) of the compound GW3965 with fixed vehicle concentration (DMSO at final concentration of 0.161%) are added to the wells. After” for “After”, “GW3965.” for “T0901317.”
as §1, with “APD.” for “T0901317.”

[3] = biological target: T3, NR1H3 (Homo sapiens, UniProt Q13133); assay: Alkaline phosphatase (AP) assay in MPCs infected with Ad-NR1H3 and treated with ligand; type: cell-based; details: MPCs infected with Ad-NR1H3, increasing ligand concentrations, MUP fluorescence readout
T3 construct: amplification of the complete open reading frame from ATG start codon to the stop codon of drugable genes; expressed in transfected cells; host or cells: primary human bone-marrow mesenchymal progenitor cells (MPCs), adenoviral transduction (Ad5-NR1H3 with Ad-hCAR)
T3 sequence (Q13133 1-447): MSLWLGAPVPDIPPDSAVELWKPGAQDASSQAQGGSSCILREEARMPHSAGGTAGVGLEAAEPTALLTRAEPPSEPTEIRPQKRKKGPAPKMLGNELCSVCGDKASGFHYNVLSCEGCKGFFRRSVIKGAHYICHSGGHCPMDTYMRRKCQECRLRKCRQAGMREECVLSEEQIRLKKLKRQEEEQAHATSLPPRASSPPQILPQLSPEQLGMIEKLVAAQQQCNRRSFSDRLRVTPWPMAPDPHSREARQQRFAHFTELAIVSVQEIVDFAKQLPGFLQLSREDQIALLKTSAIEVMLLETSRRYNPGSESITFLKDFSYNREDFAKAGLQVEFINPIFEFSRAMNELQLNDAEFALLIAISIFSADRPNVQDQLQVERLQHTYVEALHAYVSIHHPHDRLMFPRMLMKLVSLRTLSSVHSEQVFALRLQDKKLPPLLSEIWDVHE
Description: Cellular AP activity is determined 6 days after the infection (or ligand addition—see below). The principle of the assays is depicted in FIG. 2. Mesenchymal stem cells derived from bone marrow are infected with the FLeXSelect™ cDNA library viruses in the presence of Ad5C15-hCAR or Ad5C20-hCAR virus. Six days after the start of infection or treatment with a ligand, endogenous alkaline phosphatase activity is measured following addition of 4-methylumbelliferyl […] (MUP) substrate.
The stocks of the Ad-control-viruses are generated in 96 well plates (control plate). The 2 μl volume corresponds to a theoretical MOI of 5000. Controls are: P1=Ad-BMP2; P2=Ad-H4-2; P3=Ad-H4-291; N1=Ad-LacZ; N2=Ad-empty; N3=Ad-eGFP. Up-regulation of alkaline phosphatase is read at 6 days post infection (6 dpi): 15 μl 4-Methylumbelliferyl-phosphate (MUP, Sigma) is added to each well, the plates are incubated for 15 min at 37° C. and monitored for AP activity using a fluorescence plate reader (Fluostar, BMG).
These dose-response curves are depicted in FIG. 5. […] MPCs are seeded on day 0 at 1000 cells per well of a 384 well plate and co-infected the next day using AdC51-hCAR (MOI 250) and different MOIs of Ad5-NR1H3 (MOI 12000, 4000, 1333, 444).
After 6 days, medium is removed and replaced with fresh medium containing the same concentrations of the compound GW3965. Readouts of AP activity are performed at several time points after the start of the experiment, typically after 7, 10 and 13 days.
After 6 days, medium is removed and replaced with fresh medium containing the same concentrations of the compound APD.

[4] = system: MPCs; assay: Up-regulation of NR5A2 and NR1H3 mRNA levels by osteogenic triggers in MPCs; type: cell-based, human; details: final concentration 0.1 μM, versus vehicle, several time points
Description: 100,000 MPCs are seeded in each well of a 6 well plate in 2 ml MPC medium, containing 10% FCS. The next day, after incubation at 37° C., 10% CO2 in a humidified incubator, cells are co-infected with AdC15-hCAR (final MOI of 750) and Ad-BMP2, Ad-RUNX2, Ad-MSX2, Ad-PTHR1/PTHLH or Ad-eGFP or Ad-luciferase as negative controls (final MOIs of 1250 and 2500). Alternatively, cells are treated with dexamethasone (final concentration 0.1 μM), VitD3 (final concentration 0.1 μM) or the vehicle controls (0.1% EtOH or DMSO). Cells are incubated at 37° C., 10% CO2 in a humidified incubator for a further six days unless cells are already harvested for RNA isolation. Virus is removed and replaced by 2 ml fresh OS medium (proprietary medium containing 10% FCS). Over the next 18 days, medium is refreshed 3 times per 2 weeks. Every other time, medium is refreshed half or completely. […] The fold up-regulation of NR5A2 or NR1H3 mRNA compared to negative controls (vehicle for dexamethasone or VitD3 treatment) or Ad-luciferase for Ad-infections) is calculated (FIG. 16).

[5] = system: calvarial skull bones (hemicalvaria); assay: Calvarial skull assay (bone organ culture, weight and histological readout); parameters: species or system CD1 mice; details: histological readout
Description: CD1 pups are harvested around birth from CD1 female mice (received from Janvier (Le Genest St Isle, France) when they were 11 days pregnant). Pups are decapitated and the calvarial skull is dissected and split into 2 hemicalvaria. Hemicalvaria are blotted using sterile gauze, weighed and cultured in 24 well plates (MEMalpha or BGJb-Fitton-Jackson medium containing 50 μg/ml L-ascorbic acid (Sigma, A-4034), 5 mM β-glycerophosphate (Sigma, G-9891) and Penicillin-Streptomycin (Invitrogen Cat # 15140-122)). Small molecules (ligands, agonists, antagonists) are tested in at least three-fold at a minimum of 3 concentrations. Each small molecule is added to the medium on day 0 and added again when refreshing the medium (every 2-3 days). Three to 16 days after the start of the experiment, skulls are weighed again after blotting them dry using sterile gauze. The weight difference is calculated, expressed as percent weight change and the mean and standard deviations (SD) are calculated for the triplicate measurements. Data are analyzed using the Student's t-test.
The formation of new osteoid is analyzed histologically as follows: hemicalvaria are fixed in 10% buffered formalin for at least 2 days, decalcified in 10% EDTA overnight, processed through graded alcohols and embedded in paraffin wax. Three to 10 μm sections are prepared of the calvaria and stained with hematoxylin and eosin (H&E). Healthy cells, dead cells, old and new bone, and collagen are identified by their distinctive morphology and colouring observed after H&E staining. The surfaces taken by these are measured stereologically (μm^2 readout) and termed Osteoblast area, Debris area, Native and New bone area, Collagen area and Total area (sum of the previous 5 areas), respectively. In addition, the thickness (μm readout) is measured at 8 positions, evenly spaced over the section.
The histological readout of the calvarial skull assay is developed using known osteogenic agents. Hemicalvaria were treated with recombinant human parathyroid hormone (rhPTH).
T0901317 is added to the culture medium of the dissected hemicalvaria at the day of dissection at several doses (19.5, 78.1 and 313 nM), in fourfold. The concentration of the solvent (vehicle), DMSO, is fixed at a final concentration of 0.05%. The medium, containing T0901317 or vehicle control is refreshed every 2-3 days. Hemicalvaria are harvested 7 days after the initiation of the experiment and subjected to the histological analysis described above.

- up-regulation of alkaline phosphatase (AP) activity [2]: dose-response relation
- up-regulation of endogenous alkaline phosphatase (AP) activity [3]: dose-response relation
Molecule: CC(=O)Oc1ccc2c(c1)[C@@]1(C)CCC[C@](C)(C(=O)OC(=O)[C@@]3(C)CCC[C@]4(C)c5cc(OC(C)=O)ccc5CC[C@@H]34)[C@@H]1CC2 [APD, acetyl podocarpic dimer]

- up-regulation of alkaline phosphatase (AP) activity [2]: dose-response relation
- up-regulation of endogenous alkaline phosphatase (AP) activity [3]: dose-response relation
Molecule: O=C(O)Cc1cccc(OCCCN(Cc2cccc(C(F)(F)F)c2Cl)CC(c2ccccc2)c2ccccc2)c1 [GW3965]

The next lines start with the molecule.

Molecule: CCCCCCCCCCCCCC=CC(O)C(N)CO[C@@H]1O[C@H](CO)[C@H](O)[C@H](O)[C@H]1O (stereo partly drawn) [1-b-D-Galactosylsphingosine]
- up-regulation of endogenous alkaline phosphatase (AP) activity [1]: dose-dependently increase

Molecule: C=C1CC[C@H](O)C/C1=C/C=C1\CCC[C@]2(C)[C@@H]([C@H](C)CCCC(C)C)CC[C@@H]12 [VitD3]
- NR5A2 mRNA levels [4]: up-regulated

B1: PTH: recombinant human parathyroid hormone, known osteogenic agent (protein, UniProt P01270 32-115, looked up)
Parathyroid hormone: SVSEIQLMHNLGKHLNSMERVEWLRKKLQDVHNFVALGAPLAPRDAGSQRPRKKEDNVLVESHEKSLGEADKADVNVLTKAKSQ
modifications: Parathyroid hormone
notes: recombinant human parathyroid hormone, known osteogenic agent
- effect on bone tissue ([5]; 10^−7 M): resorptive effect
- effect on bone tissue ([5]; 10^−11 M): induces bone build-up
